Columns and labels:
Format in all cases: in vivo
[1] = tested on: ragweed (common ragweed, Ambrosia elatior); test: Test C greenhouse herbicide test, pre- and postemergence
Procedure, shortened: (§1)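 Two application timings: at sowing into a soil/sand blend, and on 2–18 cm seedlings in peat-vermiculite potting mix. A non-phytotoxic, surfactant-containing solvent carried the compounds. Plants were compared with controls and rated visually on 0–100 after 13–15 d.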

[2] = tested on: ryegrass, Italian (Italian ryegrass, Lolium multiflorum); test: as above
Procedure, shortened: as §1

[3] = tested on: velvetleaf (Abutilon theophrasti); test: as above
Procedure, shortened: as §1

[4] = tested on: crabgrass, large (large crabgrass, Digitaria sanguinalis); test: as above
Procedure, shortened: as §1

corn (Zea mays) = test: as above
Procedure, shortened: as §1

soybean (Glycine max) = test: as above
Procedure, shortened: as §1

[5] = tested on: lambsquarters (Chenopodium album); test: as above
Procedure, shortened: as §1

[6] = tested on: pigweed (Amaranthus retroflexus); test: as above
Procedure, shortened: as §1

[7] = tested on: johnsongrass (Sorghum halepense); test: as above
Procedure, shortened: as §1

[8] = tested on: foxtail, giant (giant foxtail, Setaria faberii); test: as above
Procedure, shortened: as §1

[9] = tested on: oilseed rape (Brassica napus); test: as above
Procedure, shortened: as §1

[10] = tested on: morningglory (Ipomoea coccinea); test: as above
Procedure, shortened: as §1

[11] = tested on: waterhemp (common waterhemp, Amaranthus rudis); test: as above
Procedure, shortened: as §1

[12] = tested on: blackgrass (Alopecurus myosuroides); test: as above
Procedure, shortened: as §1

kochia (Kochia scoparia) = test: Test C greenhouse herbicide test, postemergence
Procedure, shortened: (§2)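 Ratings are visual scores from 0 (no effect) to 100 (complete control), made against controls 13–15 d after treatment. Postemergence sprays were applied in the greenhouse to plants 2–18 cm tall (1- to 4-leaf stage) in peat-moss/vermiculite potting medium.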

[13] = tested on: oat, wild (wild oat, Avena fatua); test: Test C greenhouse herbicide test, postemergence
Procedure, shortened: as §2

[14] = Postemergence, 31 g ai/ha, scale 0 to 100 (0 no effect, 100 complete control)
[15] = Postemergence, 62 g ai/ha, 0 to 100 scale (0 no effect, 100 complete control)
[16] = Postemergence, 250 g ai/ha, scale 0 to 100, 0 no effect, 100 complete control, 13 to 15 d
[17] = Preemergence, 31 g ai/ha, scale 0 to 100, 0 is no effect, 100 is complete control
[18] = Preemergence, 62 g ai/ha, scale 0 to 100, 0 is no effect, 100 is complete control
[19] = Preemergence, 125 g ai/ha, scale 0 to 100, 0 is no effect, 100 is complete control
[20] = Preemergence, 250 g ai/ha, scale 0 to 100 (0 no effect, 100 complete control)
[21] = postemergence, 125 g ai/ha, scale 0 to 100, 0 no effect, 100 complete control

## COC(=O)Oc1c(Br)nn(C)c(=O)c1-c1c(C)ccc2ccccc12 [Compound 137]
[1]; [14]
  Plant response rating, Ragweed: 10
[1]; [15]
  Ragweed plant response rating: 20
[1]; [16]
  Plant response rating, Ragweed: 40
[1]; [17]
  Plant response rating, Ragweed: 80
[1]; [18]
  Plant response rating, Ragweed: 95
[1]; [19]
  Plant response rating, Ragweed: 95
[1]; [20]
  Ragweed plant response rating: 100
[1]; [21]
  Ragweed plant response rating: 30
[2]; [14]
  Plant response rating, Ryegrass, Italian: 10
[2]; [15]
  Ryegrass, Italian plant response rating: 30
[2]; [16]
  Plant response rating, Ryegrass, Italian: 60
[2]; [17]
  Plant response rating, Ryegrass, Italian: 85
[2]; [18]
  Plant response rating, Ryegrass, Italian: 95
[2]; [19]
  Plant response rating, Ryegrass, Italian: 100
[2]; [20]
  Ryegrass, Italian plant response rating: 100
[2]; [21]
  Ryegrass, Italian plant response rating: 30
[3]; [14]
  Plant response rating, Velvetleaf: 85
[3]; [15]
  Velvetleaf plant response rating: 90
[3]; [16]
  Plant response rating, Velvetleaf: 95
[3]; [17]
  Plant response rating, Velvetleaf: 80
[3]; [18]
  Plant response rating, Velvetleaf: 100
[3]; [19]
  Plant response rating, Velvetleaf: 100
[3]; [20]
  Velvetleaf plant response rating: 100
[3]; [21]
  Velvetleaf plant response rating: 90
[4]; [14]
  Plant response rating, Crabgrass, Large: 30
[4]; [15]
  Crabgrass, Large plant response rating: 30
[4]; [16]
  Plant response rating, Crabgrass, Large: 35
[4]; [17]
  Plant response rating, Crabgrass, Large: 20
[4]; [18]
  Plant response rating, Crabgrass, Large: 20
[4]; [19]
  Plant response rating, Crabgrass, Large: 70
[4]; [20]
  Crabgrass, Large plant response rating: 80
[4]; [21]
  Crabgrass, Large plant response rating: 35
Corn (Zea mays); [14]
  Plant response rating, Corn: 5
Corn (Zea mays); [15]
  Corn plant response rating: 15
Corn (Zea mays); [16]
  Plant response rating, Corn: 20
Corn (Zea mays); [17]
  Plant response rating, Corn: 0
Corn (Zea mays); [18]
  Plant response rating, Corn: 10
Corn (Zea mays); [19]
  Plant response rating, Corn: 10
Corn (Zea mays); [20]
  Corn plant response rating: 55
Corn (Zea mays); [21]
  Corn plant response rating: 10
Soybean (Glycine max); [14]
  Plant response rating, Soybean: 10
Soybean (Glycine max); [15]
  Soybean plant response rating: 10
Soybean (Glycine max); [16]
  Plant response rating, Soybean: 20
Soybean (Glycine max); [17]
  Plant response rating, Soybean: 30
Soybean (Glycine max); [18]
  Plant response rating, Soybean: 20
Soybean (Glycine max); [19]
  Plant response rating, Soybean: 40
Soybean (Glycine max); [20]
  Soybean plant response rating: 30
Soybean (Glycine max); [21]
  Soybean plant response rating: 15
[5]; [14]
  Plant response rating, Lambsquarters: 90
[5]; [15]
  Lambsquarters plant response rating: 90
[5]; [16]
  Plant response rating, Lambsquarters: 100
[5]; [17]
  Plant response rating, Lambsquarters: 90
[5]; [18]
  Plant response rating, Lambsquarters: 100
[5]; [19]
  Plant response rating, Lambsquarters: 100
[5]; [20]
  Lambsquarters plant response rating: 95
[5]; [21]
  Lambsquarters plant response rating: 98
[6]; [14]
  Plant response rating, Pigweed: 90
[6]; [15]
  Pigweed plant response rating: 98
[6]; [16]
  Plant response rating, Pigweed: 100
[6]; [17]
  Plant response rating, Pigweed: 100
[6]; [18]
  Plant response rating, Pigweed: 100
[6]; [19]
  Plant response rating, Pigweed: 100
[6]; [20]
  Pigweed plant response rating: 100
[6]; [21]
  Pigweed plant response rating: 98
[7]; [14]
  Plant response rating, Johnsongrass: 10
[7]; [15]
  Johnsongrass plant response rating: 10
[7]; [16]
  Plant response rating, Johnsongrass: 15
[7]; [17]
  Plant response rating, Johnsongrass: 0
[7]; [18]
  Plant response rating, Johnsongrass: 5
[7]; [19]
  Plant response rating, Johnsongrass: 20
[7]; [20]
  Johnsongrass plant response rating: 20
[7]; [21]
  Johnsongrass plant response rating: 15
[8]; [14]
  Plant response rating, Foxtail, Giant: 45
[8]; [15]
  Foxtail, Giant plant response rating: 60
[8]; [16]
  Plant response rating, Foxtail, Giant: 95
[8]; [17]
  Plant response rating, Foxtail, Giant: 65
[8]; [18]
  Plant response rating, Foxtail, Giant: 85
[8]; [19]
  Plant response rating, Foxtail, Giant: 95
[8]; [20]
  Foxtail, Giant plant response rating: 100
[8]; [21]
  Foxtail, Giant plant response rating: 80
[9]; [14]
  Plant response rating, Oilseed Rape: 95
[9]; [15]
  Oilseed Rape plant response rating: 98
[9]; [16]
  Plant response rating, Oilseed Rape: 98
[9]; [17]
  Plant response rating, Oilseed Rape: 0
[9]; [18]
  Plant response rating, Oilseed Rape: 90
[9]; [19]
  Plant response rating, Oilseed Rape: 50
[9]; [20]
  Oilseed Rape plant response rating: 90
[9]; [21]
  Oilseed Rape plant response rating: 98
[10]; [14]
  Plant response rating, Morningglory: 100
[10]; [15]
  Morningglory plant response rating: 98
[10]; [16]
  Plant response rating, Morningglory: 100
[10]; [17]
  Plant response rating, Morningglory: 70
[10]; [18]
  Plant response rating, Morningglory: 85
[10]; [19]
  Plant response rating, Morningglory: 90
[10]; [20]
  Morningglory plant response rating: 98
[10]; [21]
  Morningglory plant response rating: 100
[11]; [14]
  Plant response rating, Waterhemp: 85
[11]; [15]
  Waterhemp plant response rating: 65
[11]; [16]
  Plant response rating, Waterhemp: 90
[11]; [17]
  Plant response rating, Waterhemp: 85
[11]; [18]
  Plant response rating, Waterhemp: 98
[11]; [19]
  Plant response rating, Waterhemp: 95
[11]; [20]
  Waterhemp plant response rating: 98
[11]; [21]
  Waterhemp plant response rating: 85
[12]; [14]
  Plant response rating, Blackgrass: 0
[12]; [15]
  Blackgrass plant response rating: 0
[12]; [16]
  Plant response rating, Blackgrass: 0
[12]; [17]
  Plant response rating, Blackgrass: 30
[12]; [18]
  Plant response rating, Blackgrass: 40
[12]; [19]
  Plant response rating, Blackgrass: 30
[12]; [20]
  Blackgrass plant response rating: 90
[12]; [21]
  Blackgrass plant response rating: 0
Kochia (Kochia scoparia); [14]
  Plant response rating, Kochia: 100
Kochia (Kochia scoparia); [15]
  Kochia plant response rating: 100
Kochia (Kochia scoparia); [16]
  Plant response rating, Kochia: 100
Kochia (Kochia scoparia); [21]
  Kochia plant response rating: 100
[13]; [14]
  Plant response rating, Oat, Wild: 70
[13]; [15]
  Oat, Wild plant response rating: 70
[13]; [16]
  Plant response rating, Oat, Wild: 90
[13]; [21]
  Oat, Wild plant response rating: 90

From patent US10597388B2, “Pyridazinone herbicides” (FMC CORPORATION, priority 2014, dated 2020)
